Experiment [1] addresses T1, alkaline phosphatase (Phosphatase, Alkaline, Calf Intestine) (Bos taurus, UniProt P19111).
T1 construct: purchased EMD Millipore 524572
Kind of experiment: in vitro. In kind it is in vitro ADME. How it is done: To determine if there was effect of addition phosphatase to the phosphate, 30 units of alkaline phosphatase (EMD Millipore Phosphatase, Alkaline, Calf Intestine catalog number 524572) was added to compound 5 and the UV spectrum (210-600 nm) was measured before and after addition of phosphatase. The was a shift in the absorbance maximum from 250 to 260 nm. The ratio of 250/260 went from 0.924 to 1.067 after phosphatase treatment.
Phosphatase treatment was repeated with 0.1 unit of phosphatase (56 ug) and 0.6 mM compound 5 at a volume of 100 uL (100 mM Tris pH 8.8, 5 mM MgCl2) and monitored as function of time. […] A unit is defined as the amount that can hydrolyze 1 μmol/min of p-nitrophenyl phosphate (PNP). Meaning that 0.1 unit of enzyme was hydrolyzing 0.015 units of phosphate: a ˜6.6 fold decrease in activity relative to PNP.

For experiment [2], the target named is T2, human lipoxygenase (ALOX15 Active Human Recombinant Protein) (Homo sapiens, UniProt P16050).
T2 sequence (P16050 1-662): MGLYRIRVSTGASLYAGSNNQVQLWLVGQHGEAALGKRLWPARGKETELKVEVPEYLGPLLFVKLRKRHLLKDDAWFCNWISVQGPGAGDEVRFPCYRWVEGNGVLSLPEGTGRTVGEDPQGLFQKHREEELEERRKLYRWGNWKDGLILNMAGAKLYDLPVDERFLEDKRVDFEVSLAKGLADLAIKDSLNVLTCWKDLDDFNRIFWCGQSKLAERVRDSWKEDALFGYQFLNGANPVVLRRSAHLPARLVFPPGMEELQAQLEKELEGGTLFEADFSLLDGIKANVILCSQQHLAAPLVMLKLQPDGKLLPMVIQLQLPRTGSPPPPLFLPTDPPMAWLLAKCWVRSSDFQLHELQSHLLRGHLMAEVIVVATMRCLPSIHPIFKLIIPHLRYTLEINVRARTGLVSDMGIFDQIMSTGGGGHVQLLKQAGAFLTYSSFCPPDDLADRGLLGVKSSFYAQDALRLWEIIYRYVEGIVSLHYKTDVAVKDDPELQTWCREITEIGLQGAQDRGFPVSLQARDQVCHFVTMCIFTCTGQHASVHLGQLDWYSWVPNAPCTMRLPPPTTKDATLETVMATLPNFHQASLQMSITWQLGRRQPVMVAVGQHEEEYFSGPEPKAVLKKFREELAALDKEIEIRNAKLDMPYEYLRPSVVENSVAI
Kind of experiment: Recombinant human ALOX15 assay (DPPP fluorescence).

The subject of experiment [3] is ALOX15 mRNA. Kind of experiment: ALOX15 mRNA by RT-qPCR in human nasal epithelial primary cells. To be noted: 5 μM or 1 μM, 3 x 24 hours with 20 ng/mL IL-13. In kind it is cell-based. How it is done:
Human nasal epithelial primary cells (HNEpC) (PromoCell GmbH, Heidelberg, Germany) were cultured according to the manufacturer in provided Primary Cell media in 24 well plates at a density of 25,000 cells per well. Cells were treated with 5 μM or 1 μM of compound 5 or vehicle only (water) in media containing 20 ng/mL IL-13 for 24 hours in a 37° C. cell culture incubator. The following day, media was replaced and fresh media containing 20 ng/mL IL-13 and compound 5 or vehicle was added to each well, then incubated again for 24 hours in a 37° C. cell culture incubator. The process was repeated once more for a 24-hour period.
ALOX15 and POSTN mRNA levels were measured by RT-qPCR. […] The level of ALOX15 mRNA from each sample was measured in triplicate by real-time qPCR on an Applied Biosystems 7500 Fast Real-Time PCR machine using the TaqMan Gene Expression Assay for human ALOX15 (ThermoFisher, assay #Hs00993765_g1). The level of PPIA mRNA was measured in biplex reactions using TaqMan Gene Expression Assay (ThermoFisher, assay #Hs99999904_ml) and used to determine relative ALOX15 mRNA levels in each well using the delta-delta Ct method. […] Relative POSTN mRNA levels were measured as above using TaqMan Gene Expression Assay specific for human POSTN mRNA (ThermoFisher, assay #Hs00170815_m1). […]
A general note: Real-time PCR tracks product formation cycle by cycle.

What is called IC50 is the concentration at which inhibition is half-maximal.

T1 sequence (P19111 20-506): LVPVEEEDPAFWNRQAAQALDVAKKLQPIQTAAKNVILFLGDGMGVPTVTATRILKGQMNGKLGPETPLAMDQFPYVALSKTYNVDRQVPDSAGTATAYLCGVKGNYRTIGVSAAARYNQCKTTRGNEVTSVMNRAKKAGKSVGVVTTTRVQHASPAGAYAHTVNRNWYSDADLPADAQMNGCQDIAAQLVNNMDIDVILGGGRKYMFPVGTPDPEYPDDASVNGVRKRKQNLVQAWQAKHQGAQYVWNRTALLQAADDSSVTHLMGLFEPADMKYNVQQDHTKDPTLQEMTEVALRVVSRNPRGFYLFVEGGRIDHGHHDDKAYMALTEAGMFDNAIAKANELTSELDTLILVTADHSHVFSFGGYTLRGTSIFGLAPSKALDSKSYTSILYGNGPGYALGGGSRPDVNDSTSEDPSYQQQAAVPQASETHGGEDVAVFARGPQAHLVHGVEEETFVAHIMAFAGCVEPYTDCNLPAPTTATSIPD

For `O=C(Nc1ccc(F)cc1Cl)c1nn(COP(=O)(O)O)c(Cl)c1Cl` [compound 5, (4,5-dichloro-3-((2-chloro-4-fluorophenyl)carbamoyl)-1H-pyrazol-1-yl)methyl dihydrogen phosphate], the “decrease in phosphatase activity relative to PNP (p-nitrophenyl phosphate)” value in experiment [1] (0.1 unit of enzyme hydrolyzing 0.015 units of phosphate) is listed as about 6.6 fold. Also, in experiment [1] (0.1 unit phosphatase, 0.6 mM compound 5, 100 uL), the “rate at which the phosphatase cleaved the phosphate” value amounted to 0.015 µmol/min. For the same molecule, in experiment [2], the 50% inhibitory concentration (IC50) was found to be 32 nM. Besides, the “inhibition of ALOX15” value in experiment [2] (in the absence of treatment with phosphatase) is “No inhibition was observed”. The “relative level of ALOX15 mRNA versus vehicle (FIG. 7)” value in experiment [3] is recorded as “lower”.

The values are drawn from patent publication US11116778B2, “Prodrugs of ALOX-15 inhibitors and methods of using the same” (EMPIRICO INC., priority 2019, dated 2021).
